Assay results taken from ChEMBL document CHEMBL1201862, “PubChem BioAssay data set” (2004).
Values joined by “and” are separate entries in the source; they are usually repeats but may differ in a detail not shown here. Identical values can stand only once. Active and inactive are the calls of the source.

Columns and labels:
[1] = Luminescence Cell-Based Dose Confirmation HTS to Identify Activators of 5'UTR Stem-Loop Driven Alpha-Synuclein mRNA Translation in H4 Neuroglioblastoma Cells. [Related pubchem assays: 1829 (Project Summary), 1814 (Primary HTS)]; format: functional
[2] = Luminescence Cell-Based Dose Response HTS to Identify Activators of Luciferase Translation or Activity in H4 […] Cells. [Related pubchem assays: 1829 (Project Summary), 1814 (Primary HTS)]; format: functional
H4 = assay: Luminescence Cell-Based Dose Response HTS to Identify Activators of 5'UTR Stem-Loop Driven Prion Protein mRNA Translation in H4 Neuroglioblastoma Cells. [Related pubchem assays: 1829 (Project Summary), 1814 (Primary HTS)]; format: functional; details: Homo sapiens
CAAX prenyl protease 2 [3] = molecular target: T1, CAAX prenyl protease 2 (Saccharomyces cerevisiae S288c, UniProt Q03530); format: biochemical
T1 sequence (Q03530 whole entry): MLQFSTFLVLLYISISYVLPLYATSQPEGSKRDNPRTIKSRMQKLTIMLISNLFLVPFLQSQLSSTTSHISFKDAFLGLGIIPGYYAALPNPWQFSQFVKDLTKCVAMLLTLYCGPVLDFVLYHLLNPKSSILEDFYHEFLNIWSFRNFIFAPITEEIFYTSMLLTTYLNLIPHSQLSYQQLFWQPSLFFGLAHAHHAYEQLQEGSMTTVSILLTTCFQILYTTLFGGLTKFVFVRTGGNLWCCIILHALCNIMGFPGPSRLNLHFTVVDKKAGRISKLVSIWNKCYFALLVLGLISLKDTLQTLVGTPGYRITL

Protein RecA = molecular target: T2, Protein RecA (Mycobacterium tuberculosis, UniProt P9WHJ3); assay: Fluorescence Cell-Free Homogeneous Dose Retest to Identify Inhibitors of RecA-Intein Splicing Activity. [Related pubchem assays (depositor defined):AID2097, AID2223, AID489010, AID492950]; format: functional
T2 sequence (P9WHJ3 whole entry): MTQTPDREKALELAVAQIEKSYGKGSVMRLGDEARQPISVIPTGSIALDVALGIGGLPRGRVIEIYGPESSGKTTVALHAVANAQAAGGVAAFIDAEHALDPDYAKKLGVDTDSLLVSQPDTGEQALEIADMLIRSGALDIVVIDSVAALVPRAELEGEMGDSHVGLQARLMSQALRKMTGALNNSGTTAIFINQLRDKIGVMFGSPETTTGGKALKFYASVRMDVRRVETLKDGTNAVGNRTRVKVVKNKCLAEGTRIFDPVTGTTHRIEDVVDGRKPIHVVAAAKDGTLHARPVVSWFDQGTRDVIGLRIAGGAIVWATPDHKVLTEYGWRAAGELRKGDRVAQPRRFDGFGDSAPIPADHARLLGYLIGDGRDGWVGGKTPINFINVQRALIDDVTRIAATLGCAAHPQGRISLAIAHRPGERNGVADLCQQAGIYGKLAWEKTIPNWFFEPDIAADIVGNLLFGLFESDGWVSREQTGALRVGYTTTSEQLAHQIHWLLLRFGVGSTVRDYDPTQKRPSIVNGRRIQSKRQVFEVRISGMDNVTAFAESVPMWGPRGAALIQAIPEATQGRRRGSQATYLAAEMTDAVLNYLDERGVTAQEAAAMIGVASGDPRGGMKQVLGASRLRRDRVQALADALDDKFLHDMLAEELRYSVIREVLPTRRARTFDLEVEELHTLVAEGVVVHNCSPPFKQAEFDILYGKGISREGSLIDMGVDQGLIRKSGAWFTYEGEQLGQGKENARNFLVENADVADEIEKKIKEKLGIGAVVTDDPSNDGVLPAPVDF

CAAX prenyl protease 2 [4] = molecular target: T3, CAAX prenyl protease 2 (Homo sapiens, UniProt Q9Y256); assay: inhibition of Ras-converting CAAX protease Rce1 – biochemical, yeast membranes, quenched-peptide fluorescence, cherry-pick, dose response (AID 588849)
T3 sequence (Q9Y256 whole entry): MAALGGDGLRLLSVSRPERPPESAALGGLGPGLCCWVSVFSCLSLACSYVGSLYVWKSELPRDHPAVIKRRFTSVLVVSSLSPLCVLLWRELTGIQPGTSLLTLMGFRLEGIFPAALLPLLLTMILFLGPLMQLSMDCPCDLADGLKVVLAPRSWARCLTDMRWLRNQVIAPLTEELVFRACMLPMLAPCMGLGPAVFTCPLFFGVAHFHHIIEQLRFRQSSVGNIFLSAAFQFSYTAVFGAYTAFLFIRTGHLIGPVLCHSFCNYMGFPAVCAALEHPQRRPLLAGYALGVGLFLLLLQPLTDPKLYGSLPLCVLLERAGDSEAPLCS

Caspase-6 = molecular target: T4, Caspase-6 (Homo sapiens, UniProt P55212); assay: inhibition of CASP6 peptide cleavage – biochemical, VEID-R110 fluorescence, cherry-pick, dose response (AID 720632)
T4 sequence (P55212 whole entry): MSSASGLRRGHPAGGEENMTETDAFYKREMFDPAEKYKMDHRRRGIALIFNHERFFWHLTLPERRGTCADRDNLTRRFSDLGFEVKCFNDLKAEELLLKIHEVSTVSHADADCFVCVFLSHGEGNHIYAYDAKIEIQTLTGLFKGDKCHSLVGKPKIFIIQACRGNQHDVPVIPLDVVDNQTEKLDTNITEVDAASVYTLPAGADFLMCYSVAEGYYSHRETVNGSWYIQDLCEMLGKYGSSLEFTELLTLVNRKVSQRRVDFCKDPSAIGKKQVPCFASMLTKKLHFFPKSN

[5] = molecular target: Protein disulfide-isomerase (Homo sapiens, UniProt P07237); assay: inhibition of PDI-driven insulin aggregation – biochemical, turbidity, absorbance, cherry-picked samples, dose response (AID 602350); format: functional
Chain of Protein disulfide-isomerase (P07237 whole entry): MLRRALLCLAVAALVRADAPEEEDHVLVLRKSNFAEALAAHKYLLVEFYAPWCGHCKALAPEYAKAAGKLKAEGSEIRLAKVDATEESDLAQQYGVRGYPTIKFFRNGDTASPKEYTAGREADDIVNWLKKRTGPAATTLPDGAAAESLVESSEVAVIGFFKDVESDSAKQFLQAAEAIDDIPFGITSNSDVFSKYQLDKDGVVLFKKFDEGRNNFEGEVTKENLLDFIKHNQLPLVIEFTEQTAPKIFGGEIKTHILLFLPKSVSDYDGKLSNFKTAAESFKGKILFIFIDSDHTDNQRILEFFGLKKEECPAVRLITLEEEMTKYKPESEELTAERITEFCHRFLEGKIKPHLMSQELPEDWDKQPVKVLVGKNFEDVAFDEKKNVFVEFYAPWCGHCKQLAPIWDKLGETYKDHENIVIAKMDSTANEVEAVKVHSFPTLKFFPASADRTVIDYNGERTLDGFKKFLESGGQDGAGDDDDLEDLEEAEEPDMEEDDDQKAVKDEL

Insulin-degrading enzyme [6] = molecular target: T5, Insulin-degrading enzyme (Homo sapiens, UniProt P14735); assay: recombinant IDE activation, cell-free – biochemical, fluorescence polarization, counter-screen for IDE activator project, dose response (AID 588681)
T5 sequence (P14735 whole entry): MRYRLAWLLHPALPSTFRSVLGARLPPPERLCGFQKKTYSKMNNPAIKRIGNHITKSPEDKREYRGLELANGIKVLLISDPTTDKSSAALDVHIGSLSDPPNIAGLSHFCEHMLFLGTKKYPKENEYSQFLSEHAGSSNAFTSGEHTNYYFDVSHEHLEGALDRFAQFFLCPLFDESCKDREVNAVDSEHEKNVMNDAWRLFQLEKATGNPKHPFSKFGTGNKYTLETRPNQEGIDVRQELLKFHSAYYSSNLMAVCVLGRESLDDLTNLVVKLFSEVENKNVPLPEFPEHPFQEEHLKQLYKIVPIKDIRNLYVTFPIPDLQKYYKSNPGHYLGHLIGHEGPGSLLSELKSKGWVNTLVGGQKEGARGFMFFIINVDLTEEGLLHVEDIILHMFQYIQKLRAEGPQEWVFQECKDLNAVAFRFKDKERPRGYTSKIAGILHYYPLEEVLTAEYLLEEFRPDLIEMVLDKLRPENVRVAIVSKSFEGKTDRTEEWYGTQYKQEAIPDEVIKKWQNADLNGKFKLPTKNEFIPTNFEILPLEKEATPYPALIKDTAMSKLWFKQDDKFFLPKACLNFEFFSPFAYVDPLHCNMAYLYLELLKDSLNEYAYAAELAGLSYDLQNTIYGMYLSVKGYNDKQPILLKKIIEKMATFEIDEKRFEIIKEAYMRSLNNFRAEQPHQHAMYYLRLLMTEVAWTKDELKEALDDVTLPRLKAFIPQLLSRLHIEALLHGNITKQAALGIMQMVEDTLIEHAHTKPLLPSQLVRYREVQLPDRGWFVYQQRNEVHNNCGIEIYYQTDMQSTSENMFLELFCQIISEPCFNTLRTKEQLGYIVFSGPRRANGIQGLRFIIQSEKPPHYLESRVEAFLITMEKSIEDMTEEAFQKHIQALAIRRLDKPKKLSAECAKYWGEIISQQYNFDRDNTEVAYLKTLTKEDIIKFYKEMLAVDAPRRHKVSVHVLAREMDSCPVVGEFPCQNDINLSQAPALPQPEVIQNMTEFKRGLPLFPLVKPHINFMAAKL

Insulin-degrading enzyme [7] = molecular target: T5, Insulin-degrading enzyme; assay: cellular IDE activation of Abeta substrate cleavage – fluorescence polarization, HEK cells, dose response (AID 588439); format: functional, cell-based
HEK293 [8] = assay: membrane integrity loss in HEK cells – cell-based, fluorescence, cytotoxicity control for IDE activator project, dose response (AID 588440); format: functional; details: Homo sapiens;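 note: cytotoxicity by LDH release measuring loss of membrane integrity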
HEK293 [9] = assay: optical interference in Abeta FP readout, dose response, artefact control for IDE activator project, biochemical, fluorescence polarization (AID 588442); format: functional, cell-based; details: Homo sapiens
[10] = molecular target: Melanin-concentrating hormone receptor 1 (Homo sapiens, UniProt Q99705); assay: Late-stage fluorescence-based counterscreen for antagonists of the G-protein coupled receptor 7 (GPR7): cell-based dose response assay to identify antagonists of the melanin-concentrating hormone receptor 1 (MCHR1) Set 5.; format: functional
Chain of Melanin-concentrating hormone receptor 1 (Q99705 whole entry): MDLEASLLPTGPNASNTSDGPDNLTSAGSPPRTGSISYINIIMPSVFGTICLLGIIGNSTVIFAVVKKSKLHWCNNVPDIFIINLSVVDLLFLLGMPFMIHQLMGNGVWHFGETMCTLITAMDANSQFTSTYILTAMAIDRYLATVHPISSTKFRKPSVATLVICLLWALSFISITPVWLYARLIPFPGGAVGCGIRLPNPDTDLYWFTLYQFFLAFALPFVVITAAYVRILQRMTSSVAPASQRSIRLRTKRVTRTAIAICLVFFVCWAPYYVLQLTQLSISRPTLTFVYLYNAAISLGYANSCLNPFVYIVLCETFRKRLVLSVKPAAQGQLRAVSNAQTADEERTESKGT

[11] = Trypanosoma cruzi growth suppression in host cells – NIH3T3 host cells, beta-gal luminescence, confirmation (AID 2044); format: functional, cell-based;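 note: intracellular parasites grown in NIH/3T3 mouse fibroblasts as host cells; luminescent beta-galactosidase reporter signal from transgenic T. cruzi replicating inside host cells; inhibitors lower the luminescence signal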
[12] = NIH3T3 cell viability loss – ATP luminescence, mouse fibroblasts, counter-screen, dose response (AID 2010); format: functional, cell-based;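 note: cells exposed to compound for about 90 hours before reading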
[13] = molecular target: Beta-2 adrenergic receptor (Homo sapiens, UniProt P07550); assay: ADRB2 activation measured by internalization – cell-based, FAP fluorogen, flow cytometry, cherry pick 1, dose response (AID 588763); format: functional
Chain of Beta-2 adrenergic receptor (P07550 whole entry): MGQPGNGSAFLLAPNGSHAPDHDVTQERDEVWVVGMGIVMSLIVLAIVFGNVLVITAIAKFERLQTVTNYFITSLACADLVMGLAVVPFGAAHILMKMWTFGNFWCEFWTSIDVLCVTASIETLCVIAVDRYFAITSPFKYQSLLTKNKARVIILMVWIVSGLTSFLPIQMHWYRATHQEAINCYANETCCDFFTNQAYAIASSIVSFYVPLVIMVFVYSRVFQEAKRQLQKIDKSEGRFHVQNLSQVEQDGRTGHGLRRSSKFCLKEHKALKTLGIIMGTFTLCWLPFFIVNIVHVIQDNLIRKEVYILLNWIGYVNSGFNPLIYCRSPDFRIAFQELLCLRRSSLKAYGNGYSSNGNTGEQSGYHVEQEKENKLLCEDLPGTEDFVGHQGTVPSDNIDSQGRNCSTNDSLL

Vero = assay: viability of Vero cells under compound – cytotoxicity control for flavivirus capping enzyme inhibitors (AID 588742); format: functional; details: Chlorocebus sabaeus
Genome polyprotein = Genome polyprotein (dengue virus type 2, UniProt P29990); assay: flavivirus cap methylation enzyme inhibition – biochemical, confirmation dose response, primary screen (AID 588689); format: functional
Chain of Genome polyprotein (P29990 2492-3391 limits assumed): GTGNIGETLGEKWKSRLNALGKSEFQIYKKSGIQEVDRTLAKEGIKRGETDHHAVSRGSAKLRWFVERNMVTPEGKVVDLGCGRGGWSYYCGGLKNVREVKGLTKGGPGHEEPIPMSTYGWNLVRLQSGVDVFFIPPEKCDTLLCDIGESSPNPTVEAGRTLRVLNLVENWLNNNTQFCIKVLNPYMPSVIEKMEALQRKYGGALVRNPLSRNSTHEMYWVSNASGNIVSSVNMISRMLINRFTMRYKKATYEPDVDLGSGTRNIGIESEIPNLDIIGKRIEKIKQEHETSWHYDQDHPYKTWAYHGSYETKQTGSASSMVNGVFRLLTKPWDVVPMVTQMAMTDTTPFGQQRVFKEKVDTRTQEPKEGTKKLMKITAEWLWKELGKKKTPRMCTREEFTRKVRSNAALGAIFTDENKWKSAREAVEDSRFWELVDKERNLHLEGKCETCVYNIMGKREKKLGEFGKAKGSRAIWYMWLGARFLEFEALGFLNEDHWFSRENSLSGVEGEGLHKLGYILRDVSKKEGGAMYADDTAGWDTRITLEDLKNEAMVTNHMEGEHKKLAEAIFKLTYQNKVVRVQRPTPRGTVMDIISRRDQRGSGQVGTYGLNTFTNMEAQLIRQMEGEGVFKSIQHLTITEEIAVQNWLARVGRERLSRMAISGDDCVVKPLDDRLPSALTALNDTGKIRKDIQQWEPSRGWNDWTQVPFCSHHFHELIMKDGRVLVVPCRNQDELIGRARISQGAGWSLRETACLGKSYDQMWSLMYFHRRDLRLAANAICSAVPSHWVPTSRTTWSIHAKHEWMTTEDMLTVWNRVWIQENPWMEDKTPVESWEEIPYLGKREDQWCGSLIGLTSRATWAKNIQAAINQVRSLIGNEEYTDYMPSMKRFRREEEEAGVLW

Aurora kinase A = molecular target: T6, Aurora kinase A (Homo sapiens, UniProt O14965); format: functional;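 note: value from the Navigating the Kinome kinase panel profiling, panel entry STK6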
T6 sequence (O14965 whole entry): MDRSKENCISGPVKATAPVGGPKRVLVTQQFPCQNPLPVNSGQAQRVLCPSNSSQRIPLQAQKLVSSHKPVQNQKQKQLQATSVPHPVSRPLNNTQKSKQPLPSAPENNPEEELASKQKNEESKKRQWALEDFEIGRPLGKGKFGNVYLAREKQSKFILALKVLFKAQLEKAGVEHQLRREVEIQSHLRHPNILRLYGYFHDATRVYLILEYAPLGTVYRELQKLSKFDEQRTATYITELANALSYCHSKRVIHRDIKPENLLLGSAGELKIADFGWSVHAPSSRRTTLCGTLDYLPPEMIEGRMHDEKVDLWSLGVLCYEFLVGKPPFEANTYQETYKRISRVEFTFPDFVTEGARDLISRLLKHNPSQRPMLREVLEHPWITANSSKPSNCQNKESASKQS

[14] = molecular target: Cyclin-dependent kinase 19 (Homo sapiens, UniProt Q9BWU1); assay: Navigating the Kinome. Panel member name: CDC2L6; format: functional
Chain of Cyclin-dependent kinase 19 (Q9BWU1 whole entry): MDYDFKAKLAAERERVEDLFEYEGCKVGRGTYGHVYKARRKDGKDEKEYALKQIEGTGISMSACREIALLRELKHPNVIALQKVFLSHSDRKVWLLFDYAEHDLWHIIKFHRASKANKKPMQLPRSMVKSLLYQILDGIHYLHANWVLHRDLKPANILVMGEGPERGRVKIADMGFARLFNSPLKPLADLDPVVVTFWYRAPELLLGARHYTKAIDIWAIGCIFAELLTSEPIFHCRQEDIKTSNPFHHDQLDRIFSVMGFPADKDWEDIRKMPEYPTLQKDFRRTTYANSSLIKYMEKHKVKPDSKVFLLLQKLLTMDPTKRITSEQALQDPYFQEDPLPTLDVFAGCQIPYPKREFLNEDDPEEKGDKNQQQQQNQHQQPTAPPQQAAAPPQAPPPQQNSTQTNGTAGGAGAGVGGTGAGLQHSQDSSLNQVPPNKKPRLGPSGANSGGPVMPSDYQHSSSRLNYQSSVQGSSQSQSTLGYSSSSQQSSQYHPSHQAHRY

Q: With Oc1nc(Nc2ccccn2)cc2ccccc12 as the molecule, how does the EC50 [1] read?
A: 4 µM (active)

Q: And the EC50 [2]?
A: 6.15 µM (active)

Q: What about the EC50 (H4) of the same molecule?
A: 36.8 µM (active)

Q: What about the AC50 (CAAX prenyl protease 2 [3]) of the same molecule?
A: > 100 µM (inactive)

Q: What about the EC50 (Protein RecA) of the same molecule?
A: > 380 µM (inactive)

Q: What about the AC50 (CAAX prenyl protease 2 [4]) of the same molecule?
A: 14 µM (active)

Q: And the AC50 (Caspase-6)?
A: 5.89 µM (active)

Q: With Cc1nnc(O)c2c(NC(=O)CSc3nnnn3-c3ccc(O)cc3)oc(C)c12 as the molecule, how does the AC50 [5] read?
A: 19.5 µM (active)

Q: For O=C1C=C(c2ccc(-c3ccccc3)cc2)C[C@@H](c2ccc3c(c2)OCO3)C1, which EC50 (Insulin-degrading enzyme [6]) is on record?
A: > 54.7 µM (inactive)

Q: What about the EC50 (Insulin-degrading enzyme [7]) of the same molecule?
A: > 54.7 µM (inactive)

Q: What about the IC50 (HEK293 [8]) of the same molecule?
A: > 89.2 µM (inactive)

Q: What about the EC50 (HEK293 [9]) of the same molecule?
A: > 54.7 µM (inactive)

Q: Which IC50 [10] does the source give for COc1ccc(Oc2c(Cl)cnn(CC(=O)N(c3ccccc3)c3ccccc3)c2=O)cc1 here?
A: 10.7 µM (inactive)

Q: With C=CCn1c(SCc2ccc(F)cc2)nnc1-c1sc2nc(C)cc(C)c2c1N as the molecule, how does the EC50 [11] read?
A: 0.423 µM (active)

Q: And the EC50 [12]?
A: > 60 µM (not active)

Q: And the EC50 [13]?
A: 0.029 µM (active)

Q: For Cc1noc(C)c1S(=O)(=O)Nc1ccc2c(c1)CC(=O)N([C@H](C)CO)C[C@H](C)[C@H](CN(C)S(=O)(=O)c1ccc(F)cc1)O2, which AC50 [5] is on record?
A: 16.9 µM (active) and 19.5 µM (active)

Q: For C/C(CC(=O)N1CCCC1)=N\NC(=O)c1cc2ccccc2cc1O, which CC50 (Vero) is on record?
A: 17.5 µM (active)

Q: And the AC50 (Caspase-6)?
A: 1.88 µM (active)

Q: With COc1cc2c(cc1Cl)C(=O)C(F)(c1ccccc1)C(=O)N2 (centres undefined) as the molecule, how does the EC50 [13] read?
A: 7.03 µM (inactive)

Q: With O=C(c1ccc2c(c1)OCO2)N(Cc1cccs1)C1(C(=O)NC2CCCCC2)CCCCC1 as the molecule, how does the CC50 (Vero) read?
A: > 40 µM (active)

Q: For CC(=O)C1=C(O)C(=O)N(c2cc(C(C)(C)C)on2)C1c1ccc(C(C)C)cc1 (centres undefined), which CC50 (Vero) is on record?
A: > 40 µM (active)

Q: What about the IC50 (Genome polyprotein) of the same molecule?
A: 95.3 µM (active)

Q: What does the source list for Cc1ccc(NC(=O)Nc2ccc(-c3c(Cc4cccnc4)sc4ncnc(N)c34)cc2)cc1?
A: Ki (Aurora kinase A): 0.0631 µM (active); Ki [14]: > 100 µM (inactive)

Q: Which EC50 (Insulin-degrading enzyme [6]) does the source give for CNC(=S)N(Cc1cccs1)Cc1cc2cc(OC)ccc2nc1O here?
A: > 54.7 µM (inactive)

Q: What about the EC50 (Insulin-degrading enzyme [7]) of the same molecule?
A: > 54.7 µM (inactive)

Q: And the IC50 (HEK293 [8])?
A: > 89.3 µM (inactive)

Q: And the EC50 (HEK293 [9])?
A: > 54.7 µM (inactive)
